According to patent US20180360799A1, “Nitrofuran Derivatives That Induce Apoptosis in Breast Cancer Cells by Activating Protein Expression” (Oklahoma Medical Research Foundation, priority 2015, published 2018):

How the values were obtained:
[1] = test system: HCC-38 cells; test: Cell viability, CellTiter-Glo, HCC-38; assay type: cell-based; conditions: Homo sapiens, HCC38, 72 h; Table 2; cancer cell viability, 3 d treatment; read-out: HCC-38 IC50
Procedure: Given the known functions of CHOP in ER stress-induced apoptosis^16, 17 and in regulating cancer cell death,^6, 19, 20 the inventor investigated whether compound 1 affects the viability of TNBC cells. Three human TNBC cell lines, HCC-1806, HCC-1143, and HCC-38, were treated with doses of 1 ranging from 0.125 μM to 20 μM and their viability was assessed using the CellTiter-Glo assay, which measures intracellular ATP levels.
HCC-1806, HCC-1143, or HCC-38 cells were seeded at 3×10^3 cells/well in a 384-well plate and treated with compounds at the indicated concentrations. After 3 d treatment, the medium was aspirated and 20 μL/well of CellTiter-Glo reagent was added. Cell viability was measured with an EnVision multilabel plate reader. The IC50 value for cell viability of each compound was calculated with GraphPad Prism (La Jolla, Calif., US).

[2] = test system: XBP1 mRNA splicing (IRE1α pathway); test: XBP1 mRNA splicing by RT-PCR in HCC-1806 cells; assay type: cell-based, human; conditions: HCC-1806, 3d 10 μM, at 2~24 h (11% at 0 h)
Procedure: FIG. 3E is a graph showing XBP1 mRNA levels in HCC-1806 cells treated with tunicamycin or a 5-nitrofuran-2-amide derivative compound 3d. HCC-1806 cells were treated with compound 3d (10 μM) or tunicamycin (Tm, 1 μg/mL) for the indicated times. XBP1 mRNA levels were analyzed by RT-PCR and the products were resolved by agarose gel electrophoresis. The full-length (unspliced, XBP1u) and spliced (XBP1s) forms of XBP1 mRNA are indicated. GAPDH mRNA was used as an internal control.
The percentage of XBP1s relative to total XBP1 was calculated as: (XBP1s/[XBP1s+XBP1u])×100%. The data shown are representative of 3 independent studies.
The inventor next asked whether the IRE1α and ATF6 branches of the unfolded protein response were also activated by compound 3d treatment of TNBC cells. […] XBP1 mRNA splicing, as measured by XBP1s levels, increased only slightly in the first 24 h after compound 3d treatment of HCC-1806 cells (from 11% of total XBP1 at 0 h to 15˜20% at 2˜24 h). […] Next, it was determined whether compound 3d activates the ATF6 pathway by evaluating its effect on the activity of an ER stress response elements (ERSE)-Luc reporter stably established in HEK293 cell line. […]

[3] = test system: UPRE-Luciferase (UPRE-Luc) reporter; test: UPRE-Luc reporter assay in HEK293 cells; assay type: cell-based, human; conditions: 3d 10 μM or Tm 1 μg/mL, 24 h
Procedure: (§1) FIG. 3G is a graph showing HEK293 cells stably expressing CHOP-Luc, ERSE-Luc, or UPRE-luc reporters were treated with DMSO, a 5-nitrofuran-2-amide derivative, or tunicamycin. HEK293 cells stably expressing CHOP-Luc, ERSE-Luc, or UPRE-luc reporters were treated with DMSO, compound 3d (10 μM), or Tm (1 μg/mL) for 24 h, and luciferase activity was measured using the Bright-Glo assay. Results are the means of 4 replicate wells and are representative of 3 independent experiments.
(§2) The inventor next asked whether the IRE1α and ATF6 branches of the unfolded protein response were also activated by compound 3d treatment of TNBC cells. […] XBP1 mRNA splicing, as measured by XBP1s levels, increased only slightly in the first 24 h after compound 3d treatment of HCC-1806 cells (from 11% of total XBP1 at 0 h to 15˜20% at 2˜24 h). […] Next, it was determined whether compound 3d activates the ATF6 pathway by evaluating its effect on the activity of an ER stress response elements (ERSE)-Luc reporter stably established in HEK293 cell line.
(§3) The HEK293T CHOP reporter cell line (CHOP-Luc) was previously described.^21 HEK293T cells were stably transfected with ERSE-Luciferase^25 and UPRE-Luciferase^23 reporters to generate ERSE-Luc and UPRE-Luc reporter cell lines, respectively. […] Luciferase activity was measured with a Bright-Glo kit 24 h later.

[4] = test system: ER stress response elements (ERSE)-Luc reporter; test: ERSE-Luc reporter assay in HEK293 cells; assay type: cell-based, human; conditions: 10 μM, 24 h
Procedure: as §1, §2, §3

[5] = test system: HCC-1806 cells; test: Viability of siRNA-transfected HCC-1806 cells, CellTiter-Glo; assay type: cell-based, human; conditions: 48 h
Procedure: FIG. 3H is a graph showing cell viability of HCC-1806 cells transfected with a control or CHOP siRNA after treatment with a 5-nitrofuran-2-amide derivative or DMSO. Control or CHOP siRNA (20 nM) was transfected into HCC-1806 cells, and 6 h later, cells were treated with compound 3d (5 μM) or DMSO for 48 h. Cell viability was measured using the CellTiter-Glo assay. The data shown are representative of 3 independent studies. *P<0.05 by Student's t-test compared with DMSO-treated cells.
To confirm that CHOP induction plays a role in compound 3d-mediated TNBC cell death, the inventor asked whether siRNA-mediated knockdown of CHOP mitigated compound 3d-induced cell death. For this, HCC-1806 cells were transfected with different concentrations of CHOP siRNA, and knockdown efficiency was assessed by RT-PCR.
HCC-1806 cells incubated with serum-free RPMI 1640 medium (Corning) were transfected with scrambled control or CHOP siRNA (E-004819-00; Dharmacon/Thermo Scientific, IL, US) using LipofectAMINE reagent (Invitrogen). After 6 h, the medium was replaced with RPMI 1640 medium supplemented with 10% FBS and compound 3d was added. After 48 h, the medium was aspirated and 60 μL/well of CellTiter-Glo reagent was added in 96-w format. Cell viability was measured with an EnVision multilabel plate reader.

## CC1CCN(c2ccc(NC(=O)c3ccc([N+](=O)[O-])o3)cc2)CC1 [Compound 3d]
[1]
  IC50: 2.5 µM
[2]
  XBP1s, percentage of total XBP1: 15˜20%
[3]
  increase of UPRE-Luc luciferase activity: less than 2 fold
[4]
  effect on ERSE-driven luciferase activity, in words: no significant effect
[5]; HCC-1806, 3d 5 μM
  viability of cells transfected with control siRNA: marked reduction in the viability
[5]; HCC-1806, CHOP siRNA 20 nM, 3d 5 μM
  cell death in cells transfected with CHOP siRNA: significantly attenuated the effects of compound 3d
